{
  "source": "patent US8575311B2",
  "about": "“Collagen peptide conjugates and uses therefor” (Purdue Research Foundation, priority 2008, dated 2013)",
  "origin": "cited, not measured here",
  "conditions": "comparison value, conditions not given",
  "data": [
    {"substance": "(Pro-Hyp-Gly)9", "values": [
      {"measurement": "Tm of comparison peptide", "result": 67, "unit": "°C"}
    ]}
  ]
}
